Results reported in ChEMBL document CHEMBL6153029, “Next-generation cancer therapeutics: PROTACs and the role of heterocyclic warheads in targeting resistance” (Eur J Med Chem, 2025).

How the values were obtained:
[1] = target: T1, Bromodomain-containing protein 4 (Homo sapiens, UniProt O60885); experiment: Inhibition of BRD4 (unknown origin) at 1 micromol/L relative to control; conditions: dose 1.0 µmol/L
THP-1 = experiment: Antiproliferative activity against human THP-1 cells; assay type: functional, cell-based
MV4-11 = experiment: Antiproliferative activity against human MV4-11 cells; assay type: functional, cell-based
[2] = target: T2, Protein cereblon/Bromodomain-containing protein 4 (Homo sapiens, UniProt O60885+Q96SW2); experiment: PROTAC activity at CRBN/BRD4 in human MV4-11 cells assessed as induction of degradation of BRD4 by measuring maximal degradation at 10 uM incubated after 24 hrs by Western blot analysis relative to control; assay type: cell-based
[3] = target: T2, Protein cereblon/Bromodomain-containing protein 4; experiment: PROTAC activity at CRBN/BRD4 in human MV4-11 cells assessed as induction of degradation of BRD4 measured after 24 hrs by Western blot analysis; assay type: cell-based
[4] = target: T1, Bromodomain-containing protein 4; experiment: Inhibition of BRD4 (unknown origin) at 0.01 umol/L relative to control; conditions: dose 0.01 µmol/L
HL-60 = experiment: Antiproliferative activity against human HL-60 cells; assay type: functional, cell-based
U-87 MG = experiment: Antiproliferative activity against human U87 cells; assay type: functional, cell-based, U-87MG ATCC
[5] = Downregulation of MDM2 protein expression in human A549 cells at 1.11 uM relative to control; assay type: functional
[6] = Upregulation of p53 protein expression in human A549 cells at 3.33 uM relative to control; assay type: functional
[7] = Upregulation of p53 protein expression in human A549 cells at 10 uM relative to control; assay type: functional
[8] = Downregulation of MDM2 protein expression in human A549 cells at 10 uM relative to control; assay type: functional
A549 [9] = experiment: Antiproliferative activity against human A549 cells; assay type: functional, cell-based
[10] = Downregulation of MDM2 protein expression in human A549 cells at 3.33 uM relative to control; assay type: functional
[11] = Upregulation of p53 protein expression in human A549 cells at 1.11 uM relative to control; assay type: functional
[12] = target: Protein cereblon/Androgen receptor (Homo sapiens) (UniProt P10275+Q96SW2); experiment: PROTAC activity at AR/CRBN in human LNCaP cells assessed as protein degradation measured by measuring maximal degradation at 5 uM incubated for 24 hrs by Western blot analysis relative to control; assay type: cell-based
LNCaP = experiment: Antiproliferative activity against human LNCAP cells assessed as reduction in cell viability incubated for 24 hrs by MTT assay; assay type: functional, cell-based
[13] = target: Mitogen-activated protein kinase kinase kinase kinase 1 (Homo sapiens, UniProt Q92918); experiment: Inhibition of HPK1 (unknown origin)
[14] = target: Platelet-derived growth factor receptor beta (Homo sapiens) (UniProt P09619); experiment: Inhibition of PDGFRbeta (unknown origin) measured for 48 hrs at 10 uM relative to control
A549 [15] = experiment: Antiproliferative activity against human A549 cells assessed as reduction in cell viability by MTT assay; assay type: functional, cell-based
NCI-H1975 = experiment: Antiproliferative activity against human NCI-H1975 cells assessed as reduction in cell viability by MTT assay; assay type: functional, cell-based
MCF7 [16] = experiment: Antiproliferative activity against human MCF7 cells assessed as reduction in cell viability at 25 uM incubated for 72 hrs by resazurin based assay relative to control; assay type: functional
MCF7 [17] = experiment: Antiproliferative activity against human MCF7 cells assessed as reduction in cell viability incubated for 48 hrs by MTT assay; assay type: functional, cell-based; conditions: MCF7, 48 h
[18] = target: Protein cereblon/Tyrosine-protein kinase BTK (Homo sapiens, UniProt Q06187+Q96SW2); experiment: PROTAC activity at BTK/CRBN in human MINO cells assessed as BTK protein degradation at 20 nM measured after 2 hrs by Western blotting analysis; assay type: cell-based
[19] = target: Protein cereblon/Mitogen-activated protein kinase kinase kinase kinase 1 (Homo sapiens, UniProt Q92918+Q96SW2); experiment: PROTAC activity at CRBN/HPK1 in human Jurkat cells assessed as degradation of HPK1 protein by Western blotting analysis; assay type: cell-based
Protein cereblon/Mitogen-activated protein kinase kinase kinase kinase 1, sequence (Q92918 whole entry): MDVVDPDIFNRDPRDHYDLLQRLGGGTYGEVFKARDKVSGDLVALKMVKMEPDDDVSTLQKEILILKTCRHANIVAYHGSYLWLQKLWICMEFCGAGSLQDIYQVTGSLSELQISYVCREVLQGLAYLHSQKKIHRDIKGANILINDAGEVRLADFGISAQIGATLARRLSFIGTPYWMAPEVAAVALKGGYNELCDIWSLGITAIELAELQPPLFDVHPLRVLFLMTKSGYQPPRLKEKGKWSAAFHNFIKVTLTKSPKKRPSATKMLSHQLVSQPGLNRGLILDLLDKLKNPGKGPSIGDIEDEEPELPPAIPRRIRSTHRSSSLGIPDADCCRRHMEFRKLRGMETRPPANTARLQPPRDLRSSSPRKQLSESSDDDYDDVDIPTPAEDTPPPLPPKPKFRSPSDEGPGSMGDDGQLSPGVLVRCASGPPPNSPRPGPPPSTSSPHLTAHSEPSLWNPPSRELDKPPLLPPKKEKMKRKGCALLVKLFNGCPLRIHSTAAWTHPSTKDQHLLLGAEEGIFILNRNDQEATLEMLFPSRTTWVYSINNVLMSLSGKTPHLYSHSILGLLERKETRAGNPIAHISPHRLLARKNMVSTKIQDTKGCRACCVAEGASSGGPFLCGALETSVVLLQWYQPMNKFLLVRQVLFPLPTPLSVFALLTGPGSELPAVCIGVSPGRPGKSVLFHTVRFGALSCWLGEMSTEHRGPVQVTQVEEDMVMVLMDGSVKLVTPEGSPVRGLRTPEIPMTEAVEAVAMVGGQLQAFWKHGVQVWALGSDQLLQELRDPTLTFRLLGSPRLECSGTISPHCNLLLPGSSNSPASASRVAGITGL
Protein cereblon/Mitogen-activated protein kinase kinase kinase kinase 1, sequence (Q96SW2 whole entry): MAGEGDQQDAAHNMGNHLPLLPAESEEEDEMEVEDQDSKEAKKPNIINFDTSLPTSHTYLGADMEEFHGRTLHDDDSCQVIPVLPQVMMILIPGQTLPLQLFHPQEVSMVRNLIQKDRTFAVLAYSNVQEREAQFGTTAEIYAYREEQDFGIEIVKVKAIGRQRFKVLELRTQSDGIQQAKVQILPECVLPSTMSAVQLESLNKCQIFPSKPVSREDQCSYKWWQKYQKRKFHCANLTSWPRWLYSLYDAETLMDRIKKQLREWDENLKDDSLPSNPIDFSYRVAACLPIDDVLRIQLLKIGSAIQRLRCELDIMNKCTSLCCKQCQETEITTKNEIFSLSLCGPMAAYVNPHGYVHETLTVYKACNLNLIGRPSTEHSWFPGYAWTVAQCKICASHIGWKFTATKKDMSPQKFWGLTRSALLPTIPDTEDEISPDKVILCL

T2 sequence (Q96SW2 whole entry, looked up, other chains not shown): as the sequence (Q96SW2 whole entry) above
Mitogen-activated protein kinase kinase kinase kinase 1, sequence (Q92918 whole entry): as the sequence (Q92918 whole entry) above
Platelet-derived growth factor receptor beta (Homo sapiens), sequence (P09619 whole entry): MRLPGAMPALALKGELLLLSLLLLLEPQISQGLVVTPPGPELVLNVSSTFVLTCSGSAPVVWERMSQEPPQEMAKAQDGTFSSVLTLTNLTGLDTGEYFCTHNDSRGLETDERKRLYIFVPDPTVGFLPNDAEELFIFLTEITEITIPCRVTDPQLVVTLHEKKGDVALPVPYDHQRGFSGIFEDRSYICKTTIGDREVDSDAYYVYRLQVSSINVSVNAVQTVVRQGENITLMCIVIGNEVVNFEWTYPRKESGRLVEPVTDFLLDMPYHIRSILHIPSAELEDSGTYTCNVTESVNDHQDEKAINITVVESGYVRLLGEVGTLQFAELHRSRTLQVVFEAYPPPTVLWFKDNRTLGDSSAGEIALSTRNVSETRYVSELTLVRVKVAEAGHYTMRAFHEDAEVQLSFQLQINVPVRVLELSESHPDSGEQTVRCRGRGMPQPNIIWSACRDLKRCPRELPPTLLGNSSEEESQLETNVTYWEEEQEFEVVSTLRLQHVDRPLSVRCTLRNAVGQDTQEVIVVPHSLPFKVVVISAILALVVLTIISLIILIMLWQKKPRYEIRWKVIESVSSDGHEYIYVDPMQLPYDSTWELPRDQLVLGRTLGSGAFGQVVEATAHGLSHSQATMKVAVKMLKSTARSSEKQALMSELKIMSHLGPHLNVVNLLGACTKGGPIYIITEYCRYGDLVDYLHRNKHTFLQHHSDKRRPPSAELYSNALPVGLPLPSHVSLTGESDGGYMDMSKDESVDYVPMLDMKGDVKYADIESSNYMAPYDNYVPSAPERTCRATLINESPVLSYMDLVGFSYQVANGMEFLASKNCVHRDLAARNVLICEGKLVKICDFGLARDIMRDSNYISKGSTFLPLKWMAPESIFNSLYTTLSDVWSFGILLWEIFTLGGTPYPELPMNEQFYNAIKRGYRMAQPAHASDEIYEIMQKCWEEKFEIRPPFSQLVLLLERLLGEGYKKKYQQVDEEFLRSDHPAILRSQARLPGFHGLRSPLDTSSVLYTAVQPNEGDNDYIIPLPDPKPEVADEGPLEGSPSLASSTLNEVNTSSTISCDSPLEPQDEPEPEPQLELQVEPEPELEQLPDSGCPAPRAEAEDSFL
Protein cereblon/Androgen receptor (Homo sapiens), sequence (P10275 whole entry, looked up): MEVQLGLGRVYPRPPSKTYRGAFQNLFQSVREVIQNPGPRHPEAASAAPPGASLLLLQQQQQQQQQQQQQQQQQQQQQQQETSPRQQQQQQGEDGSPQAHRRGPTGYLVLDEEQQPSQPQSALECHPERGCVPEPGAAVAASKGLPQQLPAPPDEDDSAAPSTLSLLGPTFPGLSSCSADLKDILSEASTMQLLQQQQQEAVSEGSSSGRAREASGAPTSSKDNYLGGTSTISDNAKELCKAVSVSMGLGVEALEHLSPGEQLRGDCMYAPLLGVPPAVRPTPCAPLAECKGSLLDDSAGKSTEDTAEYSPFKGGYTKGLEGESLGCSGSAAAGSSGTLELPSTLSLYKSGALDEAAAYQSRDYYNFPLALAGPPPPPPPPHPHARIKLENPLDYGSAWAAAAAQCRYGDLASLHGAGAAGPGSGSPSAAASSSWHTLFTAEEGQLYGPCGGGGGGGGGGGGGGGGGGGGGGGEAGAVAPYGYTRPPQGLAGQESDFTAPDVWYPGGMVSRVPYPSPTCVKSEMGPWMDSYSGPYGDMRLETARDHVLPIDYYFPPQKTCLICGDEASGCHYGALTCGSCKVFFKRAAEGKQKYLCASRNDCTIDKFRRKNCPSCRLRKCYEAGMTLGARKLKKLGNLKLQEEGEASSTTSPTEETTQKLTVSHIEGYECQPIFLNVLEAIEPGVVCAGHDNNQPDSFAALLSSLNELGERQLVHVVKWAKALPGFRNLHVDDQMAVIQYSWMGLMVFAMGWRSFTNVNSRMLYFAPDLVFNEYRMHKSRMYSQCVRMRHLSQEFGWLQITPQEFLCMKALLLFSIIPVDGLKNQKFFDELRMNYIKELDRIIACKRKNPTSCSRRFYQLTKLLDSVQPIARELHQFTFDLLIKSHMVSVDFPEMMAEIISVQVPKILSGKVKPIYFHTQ
Protein cereblon/Androgen receptor (Homo sapiens), sequence (Q96SW2 whole entry, looked up): as the sequence (Q96SW2 whole entry) above
Protein cereblon/Tyrosine-protein kinase BTK, sequence (Q06187 whole entry): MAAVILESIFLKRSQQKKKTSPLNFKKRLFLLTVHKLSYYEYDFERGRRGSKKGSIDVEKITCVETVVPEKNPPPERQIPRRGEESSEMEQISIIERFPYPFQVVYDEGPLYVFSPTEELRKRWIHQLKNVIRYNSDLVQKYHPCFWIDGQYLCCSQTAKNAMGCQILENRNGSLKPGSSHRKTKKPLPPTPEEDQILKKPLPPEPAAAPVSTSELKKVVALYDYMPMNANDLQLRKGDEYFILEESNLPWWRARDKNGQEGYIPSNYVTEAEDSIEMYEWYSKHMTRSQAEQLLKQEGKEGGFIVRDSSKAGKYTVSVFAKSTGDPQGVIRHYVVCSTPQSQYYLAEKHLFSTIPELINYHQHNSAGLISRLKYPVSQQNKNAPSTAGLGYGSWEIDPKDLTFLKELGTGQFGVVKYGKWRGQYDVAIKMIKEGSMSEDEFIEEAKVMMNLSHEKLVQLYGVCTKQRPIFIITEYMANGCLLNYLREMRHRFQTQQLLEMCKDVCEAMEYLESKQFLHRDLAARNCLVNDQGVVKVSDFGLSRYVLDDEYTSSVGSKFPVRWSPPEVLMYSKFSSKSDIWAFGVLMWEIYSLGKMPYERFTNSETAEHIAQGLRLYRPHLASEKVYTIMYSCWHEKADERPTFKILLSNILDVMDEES
Protein cereblon/Tyrosine-protein kinase BTK, sequence (Q96SW2 whole entry): as the sequence (Q96SW2 whole entry) above

Question: For `Cc1cc(-c2cc(NC(=O)CCC(=O)NCCOCCOCCc3ccc4c(c3)C(=O)N(C3CCC(=O)NC3=O)C4=O)ccc2Oc2ccccc2)n2cc[nH]c(=O)c12` (stereo unspecified), which inhibition [1] is on record?
Answer: The inhibition was 92.3%.

Question: And the IC50 (THP-1)?
Answer: Its IC50 is 22.9 nM.

Question: What about the IC50 (MV4-11) of the same compound?
Answer: Its IC50 is 0.4 nM.

Question: And the Emax [2]?
Answer: Its Emax is 95%.

Question: What about the DC50 [3] of the same compound?
Answer: The DC50 was 0.75 nM.

Question: What about the inhibition [4] of the same compound?
Answer: Its inhibition is 61.1%.

Question: And the IC50 (HL-60)?
Answer: Its IC50 is 45.6 nM.

Question: Which IC50 (U-87 MG) does the source give for `Cc1ncsc1-c1ccc(CNC(=O)[C@@H]2C[C@@H](O)CN2C(=O)[C@@H](NC(=O)CCC(=O)Nc2ccc(-c3nncc4c3C3CC4CC3C(=O)NCCCC(=O)n3nc(N)c4c(-c5ccc(NC(=O)Nc6cccc(Cl)c6)cc5)cccc43)cc2)C(C)(C)C)cc1` (stereo partly specified) here?
Answer: Its IC50 is 910 nM.

Question: With `COC(C)(C)CCC[C@@](C)(O)[C@H]1CC[C@]2(C)[C@@H]1[C@H](O)C[C@@H]1[C@@]3(C)CC[C@H](OCC(=O)N4CCN(CC5CCN(c6ccc7c(c6)CN(C6CCC(=O)NC6=O)C7=O)CC5)CC4)C(C)(C)[C@@H]3CC[C@]12C` (stereo partly specified) as the compound, how does the Activity [5] read?
Answer: Its Activity is 33.78%.

Question: And the Activity [6]?
Answer: Its Activity is 138.01%.

Question: And the Activity [7]?
Answer: Its Activity is 147.15%.

Question: What about the Activity [8] of the same compound?
Answer: The Activity was 65.39%.

Question: And the IC50 (A549 [9])?
Answer: Its IC50 is 2160 nM.

Question: And the Activity [10]?
Answer: The Activity was 49.53%.

Question: And the Activity [11]?
Answer: The Activity was 133.45%.

Question: What does the source list for `CC1(C)C(=O)N(c2ccc(C#N)c(C(F)(F)F)c2)C(=S)N1CCCCCCCCC(=O)N1CCN(CCCCCCCCCCCCC(=O)NC23CC4CC(CC(C4)C2)C3)CC1`?
Answer: Emax [12]: 57%; IC50 (LNCaP): 4.77 µM

Question: For `COc1ccc(-c2c[nH]c3ccc(-c4ccc(N5CCN(C(=O)CCCCCNc6cccc7c6C(=O)N(C6CCC(=O)NC6=O)C7=O)CC5)cc4)cc23)cc1OC` (stereo unspecified), which IC50 [13] is on record?
Answer: Its IC50 is 614 nM.

Question: Which inhibition [14] does the source give for `O=C1CCC(N2Cc3c(NC(=O)CCCNC(=O)c4cc(Oc5ccc(NC(=O)Nc6ccc(Cl)c(C(F)(F)F)c6)cc5)ccn4)cccc3C2=O)C(=O)N1` (stereo unspecified) here?
Answer: The inhibition was greater than 70%.

Question: Which IC50 (A549 [15]) does the source give for `COc1cc2ncnc(Nc3ccc(Cl)c(Cl)c3F)c2cc1Oc1ccc(NC(=O)CCCCCCC(=O)Nc2cccc3c2CN(C2CCC(=O)NC2=O)C3=O)cc1` (stereo unspecified) here?
Answer: The IC50 was 67 µM.

Question: What about the IC50 (NCI-H1975) of the same compound?
Answer: Its IC50 is 2100 nM.

Question: What does the source list for `Nc1nc2cc(-c3nn(Cc4cn(CCCCCC(=O)Nc5cccc6c5C(=O)N(C5CCC(=O)NC5=O)C6=O)nn4)c4ncnc(N)c34)ccc2o1` (stereo unspecified)?
Answer: Activity (MCF7 [16]): 90%; IC50 (MCF7 [17]): 87 nM

Question: With `Nc1ncnc2c1c(-c1ccc(Oc3ccccc3)cc1)nn2[C@@H]1CCCN(C(=O)CCCCCNc2ccc3c(c2)C(=O)N(C2CCC(=O)NC2=O)C3)C1` (stereo partly specified) as the compound, how does the DC50 [18] read?
Answer: The DC50 was 3.8 nM.

Question: What does the source list for `COc1ccc(-c2c[nH]c3ccc(-c4ccc(N5CCN(C(=O)CCOCCNc6cccc7c6C(=O)N(C6CCC(=O)NC6=O)C7=O)CC5)cc4)cc23)cc1OC` (stereo unspecified)?
Answer: IC50 [13]: 140 nM; DC50 [19]: 1.8 nM
